Data taken from US5401739A, “Benzothiadiazine derivatives” (Taiho Pharmaceutical Co. Ltd., priority 1991, dated 1995).

Key:
[1] = tested on: hydrochloric acid induced-ulcer; assay: Effect on hydrochloric acid induced-ulcer (Pharmacological Test 2); type: in vivo, Male Wistar rats; settings: 1 h before 0.6N HCl
Procedure: Effect on hydrochloric acid induced-ulcer:
(§1) Male Wistar rats (weighing 156 to 189 g) were divided into groups, 5 to 8 rats in each group. The animals were fasted for 24 hours, and 5 ml/kg of 0.6N hydrochloric acid was given orally. The animals were sacrificed 1 hour later. The stomach was removed, and 1% formalin was injected into the removed stomach to fix the stomach. The stomach was then incised open along the greater curvature. The length (mm) of gastric lesions was measured, summed and used as an ulcer index. The compound to be tested was dissolved in water, and the solution was orally given to animals at varying doses 1 hour before the injection of hydrochloric acid.

gastric acid secretion [2] = assay: Inhibitory activity on gastric acid secretion (pylorus ligation, Pharmacological Test 1); type: in vivo, Male Wistar rats
Procedure: Inhibitory activity on gastric acid secretion:
(§2) Male Wistar rats (weighing 172 to 200 g) were divided into groups, 7 to 8 rats in each group. The animals were fasted for 24 hours. Under ether anesthesia, the abdomen was incised and the pylorus was ligated according to the method of Shay et al. [Gastroenterology, 1, 420 (1963)]. The animals were sacrificed 4 hours later, and the stomach was removed to collect gastric juice, which was then centrifuged (3000 r.p.m., 10 minutes). The volume of gastric juice and the acidity were measured. The compound to be tested was dissolved in water, and the solution was intraduodenally given to animals at varying doses immediately after the ligation of the pylorus.

[3] = Hygroscopicity (remark in Table 1); type: physicochemical
[4] = tested on: hydrochloric acid induced-ulcer; assay: Effect on hydrochloric acid induced-ulcer, comparison with Compound A (Pharmacological Test 4); type: in vivo, Male Wistar rats; settings: 30 mg/kg; for Percent inhibition of effect on hydrochloric acid induced-ulcer: Table 8, oral as in Test 2
Procedure: as §1

gastric acid secretion [5] = assay: Inhibitory activity on gastric acid secretion, comparison with Compound A (Pharmacological Test 3); type: in vivo, Male Wistar rats; settings: 30 mg/kg; for Percent inhibition on gastric acid secretion: Table 7, intraduodenal as in Test 1
Procedure: as §2
Inhibitory activity on gastric acid secretion was measured in the same manner as in Pharmacological Test 1 with use of Compound 2 below as the present compound and, for comparison, Compound A below of Example 37c in JP-A-116277/1984.

[6] = Table 3, 10 mg/kg intraduodenal, 4 h, control 2.5 ± 0.5
[7] = Table 3, 10 mg/kg intraduodenal, 4 h, control 65.2 ± 10.7
[8] = Table 3, 10 mg/kg intraduodenal, 4 h, control 162.3 ± 41.6

CCCCN1C(NC/C=C\COc2cccc(CN3CCCCC3)c2)=NS(=O)(=O)c2ccccc21 [Compound 28]
Percent inhibition (ulcer index) ([1]; Table 6, 10 mg/kg oral): 22.6% | Ulcer index ([1]; Table 6, 10 mg/kg oral, control 150.0 ± 35.2): 116.1 ± 34.9 mm | Percent inhibition (ulcer index) ([1]; Table 6, 30 mg/kg oral): 62.8% | Ulcer index ([1]; Table 6, 30 mg/kg oral, control 150.0 ± 35.2): 55.8 ± 32.4 mm | Percent inhibition (ulcer index) ([1]; Table 6, 100 mg/kg oral): 96.6% | Ulcer index ([1]; Table 6, 100 mg/kg oral, control 150.0 ± 35.2): 5.1 ± 4.1 mm | Volume of gastric juice (gastric acid secretion [2]; [6]): 2.2 ± 0.8 mL | Acidity (gastric acid secretion [2]; [7]): 59.2 ± 12.4 μ Eq/ml | Total acid output (gastric acid secretion [2]; [8]): 133.3 ± 69.0 μ Eq | Volume of gastric juice (gastric acid secretion [2]; Table 3, 30 mg/kg intraduodenal, 4 h, control 2.5 ± 0.5): 1.5 ± 0.5 mL | Acidity (gastric acid secretion [2]; Table 3, 30 mg/kg intraduodenal, 4 h, control 65.2 ± 10.7): 32.0 ± 14.4 μ Eq/ml | Total acid output (gastric acid secretion [2]; Table 3, 30 mg/kg intraduodenal, 4 h, control 162.3 ± 41.6): 53.6 ± 32.9 μ Eq | Volume of gastric juice (gastric acid secretion [2]; Table 3, 100 mg/kg intraduodenal, 4 h, control 2.5 ± 0.5): 1.1 ± 0.5 mL | Acidity (gastric acid secretion [2]; Table 3, 100 mg/kg intraduodenal, 4 h, control 65.2 ± 10.7): 4.9 ± 8.2 μ Eq/ml | Total acid output (gastric acid secretion [2]; Table 3, 100 mg/kg intraduodenal, 4 h, control 162.3 ± 41.6): 4.6 ± 7.1 μ Eq

COc1ccc2c(c1)N(C)C(NC/C=C\COc1cccc(CN3CCCCC3)c1)=NS2(=O)=O [Compound 29, 3-[N-[4-[3-(piperidinomethyl)phenoxy]-(cis) 2-butenyl]amino]-4-methyl-6-methoxy-1,2,4-benzothiadiazine-1,1-dioxide]
Hygroscopicity [3]: Hygroscopic

CN1C(NC/C=C\COc2cccc(CN3CCCCC3)c2)=NS(=O)(=O)c2ccccc21 [Compound 22, 3-[N-[4-[3-(piperidinomethyl)phenoxy]-(cis) 2-butenyl]amino]-4-methyl-1,2,4-benzothiadiazine-1,1-dioxide]
Percent inhibition (ulcer index) ([1]; Table 5, 10 mg/kg oral): 16.5% | Ulcer index ([1]; Table 5, 10 mg/kg oral, control 61.2 ± 25.4): 51.1 ± 20.4 mm | Percent inhibition (ulcer index) ([1]; Table 5, 30 mg/kg oral): 35.6% | Ulcer index ([1]; Table 5, 30 mg/kg oral, control 61.2 ± 25.4): 39.4 ± 13.2 mm | Percent inhibition (ulcer index) ([1]; Table 5, 100 mg/kg oral): 48.4% | Ulcer index ([1]; Table 5, 100 mg/kg oral, control 61.2 ± 25.4): 31.6 ± 5.0 mm | Volume of gastric juice (gastric acid secretion [2]; Table 3, 3 mg/kg intraduodenal, 4 h, control 2.5 ± 0.5): 2.0 ± 0.6 mL | Acidity (gastric acid secretion [2]; Table 3, 3 mg/kg intraduodenal, 4 h, control 65.2 ± 10.7): 8.6 ± 8.2 μ Eq/ml | Total acid output (gastric acid secretion [2]; Table 3, 3 mg/kg intraduodenal, 4 h, control 162.3 ± 41.6): 15.5 ± 9.6 μ Eq | Volume of gastric juice (gastric acid secretion [2]; [6]): 2.3 ± 1.0 mL | Acidity (gastric acid secretion [2]; [7]): 2.1 ± 3.9 μ Eq/ml | Total acid output (gastric acid secretion [2]; [8]): 4.5 ± 9.4 μ Eq

COc1ccc(CN(CCCOc2cccc(CN3CCCCC3)c2)C2=NS(=O)(=O)c3ccccc3N2C)cc1 [Compound 2, 3-[N-[3-[3-(piperidinomethyl)phenoxy]propyl]-4'-methoxybenzylamino]-4-methyl-1,2,4-benzothiadiazine-1,1-dioxide]
Percent inhibition of effect on hydrochloric acid induced-ulcer [4]: 86.9% | effect on hydrochloric acid induced-ulcer, compared with Compound A ([4]; in words, vs Compound A): extremely excellent than Compound A | Percent inhibition (ulcer index) ([1]; Table 4, 3 mg/kg oral): 33.6% | Ulcer index ([1]; Table 4, 3 mg/kg oral, control 72.7 ± 23.7): 48.3 ± 17.8 mm | Percent inhibition (ulcer index) ([1]; Table 4, 10 mg/kg oral): 55.8% | Ulcer index ([1]; Table 4, 10 mg/kg oral, control 72.7 ± 23.7): 32.1 ± 24.9 mm | Percent inhibition (ulcer index) ([1]; Table 4, 30 mg/kg oral): 85.0% | Ulcer index ([1]; Table 4, 30 mg/kg oral, control 72.7 ± 23.7): 10.9 ± 17.2 mm | Percent inhibition (ulcer index) ([1]; Table 4, 100 mg/kg oral): 94.5% | Ulcer index ([1]; Table 4, 100 mg/kg oral, control 72.7 ± 23.7): 4.0 ± 6.1 mm | Percent inhibition on gastric acid secretion (gastric acid secretion [5]): 95.1% | inhibitory activity on gastric acid secretion, compared with Compound A (gastric acid secretion [5]; in words, vs Compound A): almost equal to Compound A | Acidity (gastric acid secretion [2]; Table 2, 3 mg/kg intraduodenal, 4 h, control 78.4 ± 12.0): 64.8 ± 15.1 μ Eq/ml | Total acid output (gastric acid secretion [2]; Table 2, 3 mg/kg intraduodenal, 4 h, control 391.6 ± 161.6): 247.8 ± 96.9 μ Eq | Volume of gastric juice (gastric acid secretion [2]; Table 2, 3 mg/kg intraduodenal, 4 h after pylorus ligation, control 4.8 ± 1.5): 3.7 ± 0.9 mL | Volume of gastric juice (gastric acid secretion [2]; Table 2, 10 mg/kg intraduodenal, 4 h, control 4.8 ± 1.5): 3.4 ± 1.8 mL | Acidity (gastric acid secretion [2]; Table 2, 10 mg/kg intraduodenal, 4 h, control 78.4 ± 12.0): 54.9 ± 16.1 μ Eq/ml | Total acid output (gastric acid secretion [2]; Table 2, 10 mg/kg intraduodenal, 4 h, control 391.6 ± 161.6): 205.9 ± 165.0 μ Eq | Volume of gastric juice (gastric acid secretion [2]; Table 2, 30 mg/kg intraduodenal, 4 h, control 4.8 ± 1.5): 2.4 ± 1.4 mL | Acidity (gastric acid secretion [2]; Table 2, 30 mg/kg intraduodenal, 4 h, control 78.4 ± 12.0): 30.9 ± 16.7 μ Eq/ml | Total acid output (gastric acid secretion [2]; Table 2, 30 mg/kg intraduodenal, 4 h, control 391.6 ± 161.6): 85.3 ± 92.7 μ Eq

CN1C(NCCCOc2cccc(CN3CCCCC3)c2)=NS(=O)(=O)c2ccccc21 [Compound A, reference compound]
Percent inhibition of effect on hydrochloric acid induced-ulcer [4]: 59.4% | Percent inhibition on gastric acid secretion (gastric acid secretion [5]): 96.2%
